# In patent publication US20130274180A1, “Pharmaceutical Compositions” (priority 2005, published 2013):
# What was measured:
# [1] = Effect of SLS concentration on apparent solubility (Example 10); type: physicochemical; details: VX-950 (95% L/5% D)
# Procedure: The effect of SLS concentration on the apparent solubility of VX-950 solid dispersions were tested.
# [2] = type: physicochemical
# Description: The manufacture of an amorphous solid dispersion containing VX-950 presented several challenges. […] Therefore, an appropriate solvent or solvent mixture is crucial to optimizing the processing and production of a solid dispersion.
# [3] = in vivo; details: rat, po
% dissolved in water @ 5 min. [1] [%],aqueous solubility [2],pH dependence of aqueous solubility [2],solubility in water [2],bioavailability [3] [%],Compound
2.7,,,,,CCC[C@H](NC(=O)[C@@H]1[C@H]2CCC[C@H]2CN1C(=O)[C@@H](NC(=O)[C@@H](NC(=O)c1cnccn1)C1CCCCC1)C(C)(C)C)C(=O)C(=O)NC1CC1 [No Excipients]
,virtually undetectable,not pH-dependent,highly insoluble,< 0.5,CCC[C@H](NC(=O)[C@@H]1[C@H]2CCC[C@H]2CN1C(=O)[C@@H](NC(=O)[C@@H](NC(=O)c1cnccn1)C1CCCCC1)C(C)(C)C)C(=O)C(=O)NC1CC1 [VX-950]
